The values that follow come from ChEMBL document CHEMBL5291721, “A preclinical secondary pharmacology resource illuminates target-adverse drug reaction associations of marketed drugs” (Nat Commun, 2023).

Targets include Glucagon receptor (Homo sapiens, UniProt P47871); Estrogen receptor beta (Homo sapiens, UniProt Q92731); Substance-P receptor (Homo sapiens, UniProt P25103).
For the next assay, the target named is T1, Progesterone receptor (Homo sapiens, UniProt P06401).
T1 sequence (P06401 whole entry): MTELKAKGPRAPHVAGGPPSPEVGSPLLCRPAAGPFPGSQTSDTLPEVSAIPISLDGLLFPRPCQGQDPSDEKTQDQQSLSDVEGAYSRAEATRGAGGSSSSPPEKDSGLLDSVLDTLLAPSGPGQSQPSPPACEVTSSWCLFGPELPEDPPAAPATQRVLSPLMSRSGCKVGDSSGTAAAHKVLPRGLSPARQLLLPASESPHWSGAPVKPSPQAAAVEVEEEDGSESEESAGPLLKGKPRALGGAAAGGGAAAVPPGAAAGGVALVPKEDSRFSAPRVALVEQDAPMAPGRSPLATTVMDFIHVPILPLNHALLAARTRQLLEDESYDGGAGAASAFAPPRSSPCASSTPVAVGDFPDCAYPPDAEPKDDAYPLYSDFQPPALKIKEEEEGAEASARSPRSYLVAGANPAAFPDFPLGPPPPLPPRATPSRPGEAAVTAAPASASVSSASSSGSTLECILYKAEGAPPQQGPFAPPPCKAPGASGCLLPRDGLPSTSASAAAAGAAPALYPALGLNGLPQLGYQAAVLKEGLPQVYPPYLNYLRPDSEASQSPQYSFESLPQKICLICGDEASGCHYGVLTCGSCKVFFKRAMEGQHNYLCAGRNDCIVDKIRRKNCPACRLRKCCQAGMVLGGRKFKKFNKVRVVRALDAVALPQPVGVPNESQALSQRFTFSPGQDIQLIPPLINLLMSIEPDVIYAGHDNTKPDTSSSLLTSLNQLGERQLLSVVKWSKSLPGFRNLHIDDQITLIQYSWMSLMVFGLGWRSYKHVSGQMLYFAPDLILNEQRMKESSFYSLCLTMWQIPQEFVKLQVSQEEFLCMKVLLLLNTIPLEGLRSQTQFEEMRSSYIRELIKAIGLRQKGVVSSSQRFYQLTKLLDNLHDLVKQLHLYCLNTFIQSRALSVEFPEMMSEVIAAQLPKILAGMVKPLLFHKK

In assay [1] the target is T2, 5-hydroxytryptamine receptor 1A (Homo sapiens, UniProt P08908).
T2 sequence (P08908 whole entry): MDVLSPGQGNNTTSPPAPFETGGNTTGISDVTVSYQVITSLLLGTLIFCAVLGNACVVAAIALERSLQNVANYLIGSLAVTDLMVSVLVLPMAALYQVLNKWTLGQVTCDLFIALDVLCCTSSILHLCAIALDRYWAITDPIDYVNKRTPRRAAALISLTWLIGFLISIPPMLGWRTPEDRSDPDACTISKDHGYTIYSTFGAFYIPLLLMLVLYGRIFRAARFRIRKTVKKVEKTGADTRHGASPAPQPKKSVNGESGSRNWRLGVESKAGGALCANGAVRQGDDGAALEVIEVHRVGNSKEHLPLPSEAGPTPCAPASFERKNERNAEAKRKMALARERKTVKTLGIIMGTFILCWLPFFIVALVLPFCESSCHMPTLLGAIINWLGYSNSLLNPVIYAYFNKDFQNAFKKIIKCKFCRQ

Assay [2] concerns the target Voltage-dependent N-type calcium channel subunit alpha-1B (Rattus norvegicus, UniProt Q02294). The class given is functional.
The target of assay [3] is T3, Alpha-2A adrenergic receptor (Homo sapiens, UniProt P08913).
T3 sequence (P08913 whole entry): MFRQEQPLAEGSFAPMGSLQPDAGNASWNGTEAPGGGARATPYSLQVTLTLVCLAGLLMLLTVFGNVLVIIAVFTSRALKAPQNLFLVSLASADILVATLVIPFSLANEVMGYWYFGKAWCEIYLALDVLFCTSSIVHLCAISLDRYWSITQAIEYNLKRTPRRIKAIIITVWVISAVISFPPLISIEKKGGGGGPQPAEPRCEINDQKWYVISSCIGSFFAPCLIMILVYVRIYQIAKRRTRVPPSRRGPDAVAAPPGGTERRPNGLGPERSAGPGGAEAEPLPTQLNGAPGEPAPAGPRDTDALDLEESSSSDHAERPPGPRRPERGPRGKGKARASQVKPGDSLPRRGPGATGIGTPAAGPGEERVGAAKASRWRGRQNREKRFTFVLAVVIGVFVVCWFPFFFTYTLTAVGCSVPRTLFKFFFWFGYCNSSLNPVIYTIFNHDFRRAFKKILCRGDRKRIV

The target of assay [4] is T4, Muscarinic acetylcholine receptor M2 (Homo sapiens, UniProt P08172).
T4 sequence (P08172 whole entry): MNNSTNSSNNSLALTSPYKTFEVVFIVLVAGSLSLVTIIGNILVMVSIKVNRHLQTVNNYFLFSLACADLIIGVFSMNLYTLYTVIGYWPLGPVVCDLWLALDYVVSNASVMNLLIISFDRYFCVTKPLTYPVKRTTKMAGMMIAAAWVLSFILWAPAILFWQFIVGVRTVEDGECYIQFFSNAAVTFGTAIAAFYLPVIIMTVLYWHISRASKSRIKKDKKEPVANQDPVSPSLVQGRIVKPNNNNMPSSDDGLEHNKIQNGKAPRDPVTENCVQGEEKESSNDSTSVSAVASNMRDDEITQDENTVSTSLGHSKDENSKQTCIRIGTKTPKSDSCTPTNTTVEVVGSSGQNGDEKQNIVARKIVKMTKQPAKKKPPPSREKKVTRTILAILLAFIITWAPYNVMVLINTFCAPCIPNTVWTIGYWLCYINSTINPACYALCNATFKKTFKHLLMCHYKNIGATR

Another assay addresses Cannabinoid receptor 1 (Homo sapiens, UniProt P21554). It counts as functional.
In assay [5] the target is 5-hydroxytryptamine receptor 7 (Homo sapiens, UniProt P34969).
Further: assay procedure not described here.

Chain of Estrogen receptor beta (Q92731 whole entry): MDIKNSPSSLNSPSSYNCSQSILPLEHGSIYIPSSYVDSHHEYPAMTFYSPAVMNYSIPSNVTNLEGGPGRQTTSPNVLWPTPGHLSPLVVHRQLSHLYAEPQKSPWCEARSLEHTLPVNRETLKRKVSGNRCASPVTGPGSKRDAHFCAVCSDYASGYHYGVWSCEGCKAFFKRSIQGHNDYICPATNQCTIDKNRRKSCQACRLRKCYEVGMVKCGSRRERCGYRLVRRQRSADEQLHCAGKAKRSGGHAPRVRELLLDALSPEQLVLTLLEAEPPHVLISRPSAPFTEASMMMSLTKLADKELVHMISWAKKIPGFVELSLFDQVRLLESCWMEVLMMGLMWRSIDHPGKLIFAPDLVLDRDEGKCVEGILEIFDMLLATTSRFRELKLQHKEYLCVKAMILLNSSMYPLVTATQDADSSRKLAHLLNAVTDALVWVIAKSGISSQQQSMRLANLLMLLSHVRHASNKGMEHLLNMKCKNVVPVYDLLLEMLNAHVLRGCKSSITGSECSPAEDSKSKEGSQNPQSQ
Chain of Glucagon receptor (P47871 whole entry): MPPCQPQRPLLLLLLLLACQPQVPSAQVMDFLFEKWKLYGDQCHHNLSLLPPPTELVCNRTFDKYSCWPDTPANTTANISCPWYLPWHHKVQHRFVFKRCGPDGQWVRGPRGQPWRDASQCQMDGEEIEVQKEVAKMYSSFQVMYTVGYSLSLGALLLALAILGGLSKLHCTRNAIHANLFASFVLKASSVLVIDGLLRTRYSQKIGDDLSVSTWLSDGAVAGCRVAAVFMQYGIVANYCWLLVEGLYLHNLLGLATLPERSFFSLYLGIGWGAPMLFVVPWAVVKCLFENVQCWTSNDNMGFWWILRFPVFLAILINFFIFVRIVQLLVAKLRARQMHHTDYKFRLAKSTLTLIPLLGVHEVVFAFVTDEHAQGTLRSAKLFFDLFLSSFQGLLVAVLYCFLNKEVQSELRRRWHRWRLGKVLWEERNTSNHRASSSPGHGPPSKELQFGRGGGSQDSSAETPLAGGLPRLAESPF
Chain of Voltage-dependent N-type calcium channel subunit alpha-1B (Q02294 whole entry): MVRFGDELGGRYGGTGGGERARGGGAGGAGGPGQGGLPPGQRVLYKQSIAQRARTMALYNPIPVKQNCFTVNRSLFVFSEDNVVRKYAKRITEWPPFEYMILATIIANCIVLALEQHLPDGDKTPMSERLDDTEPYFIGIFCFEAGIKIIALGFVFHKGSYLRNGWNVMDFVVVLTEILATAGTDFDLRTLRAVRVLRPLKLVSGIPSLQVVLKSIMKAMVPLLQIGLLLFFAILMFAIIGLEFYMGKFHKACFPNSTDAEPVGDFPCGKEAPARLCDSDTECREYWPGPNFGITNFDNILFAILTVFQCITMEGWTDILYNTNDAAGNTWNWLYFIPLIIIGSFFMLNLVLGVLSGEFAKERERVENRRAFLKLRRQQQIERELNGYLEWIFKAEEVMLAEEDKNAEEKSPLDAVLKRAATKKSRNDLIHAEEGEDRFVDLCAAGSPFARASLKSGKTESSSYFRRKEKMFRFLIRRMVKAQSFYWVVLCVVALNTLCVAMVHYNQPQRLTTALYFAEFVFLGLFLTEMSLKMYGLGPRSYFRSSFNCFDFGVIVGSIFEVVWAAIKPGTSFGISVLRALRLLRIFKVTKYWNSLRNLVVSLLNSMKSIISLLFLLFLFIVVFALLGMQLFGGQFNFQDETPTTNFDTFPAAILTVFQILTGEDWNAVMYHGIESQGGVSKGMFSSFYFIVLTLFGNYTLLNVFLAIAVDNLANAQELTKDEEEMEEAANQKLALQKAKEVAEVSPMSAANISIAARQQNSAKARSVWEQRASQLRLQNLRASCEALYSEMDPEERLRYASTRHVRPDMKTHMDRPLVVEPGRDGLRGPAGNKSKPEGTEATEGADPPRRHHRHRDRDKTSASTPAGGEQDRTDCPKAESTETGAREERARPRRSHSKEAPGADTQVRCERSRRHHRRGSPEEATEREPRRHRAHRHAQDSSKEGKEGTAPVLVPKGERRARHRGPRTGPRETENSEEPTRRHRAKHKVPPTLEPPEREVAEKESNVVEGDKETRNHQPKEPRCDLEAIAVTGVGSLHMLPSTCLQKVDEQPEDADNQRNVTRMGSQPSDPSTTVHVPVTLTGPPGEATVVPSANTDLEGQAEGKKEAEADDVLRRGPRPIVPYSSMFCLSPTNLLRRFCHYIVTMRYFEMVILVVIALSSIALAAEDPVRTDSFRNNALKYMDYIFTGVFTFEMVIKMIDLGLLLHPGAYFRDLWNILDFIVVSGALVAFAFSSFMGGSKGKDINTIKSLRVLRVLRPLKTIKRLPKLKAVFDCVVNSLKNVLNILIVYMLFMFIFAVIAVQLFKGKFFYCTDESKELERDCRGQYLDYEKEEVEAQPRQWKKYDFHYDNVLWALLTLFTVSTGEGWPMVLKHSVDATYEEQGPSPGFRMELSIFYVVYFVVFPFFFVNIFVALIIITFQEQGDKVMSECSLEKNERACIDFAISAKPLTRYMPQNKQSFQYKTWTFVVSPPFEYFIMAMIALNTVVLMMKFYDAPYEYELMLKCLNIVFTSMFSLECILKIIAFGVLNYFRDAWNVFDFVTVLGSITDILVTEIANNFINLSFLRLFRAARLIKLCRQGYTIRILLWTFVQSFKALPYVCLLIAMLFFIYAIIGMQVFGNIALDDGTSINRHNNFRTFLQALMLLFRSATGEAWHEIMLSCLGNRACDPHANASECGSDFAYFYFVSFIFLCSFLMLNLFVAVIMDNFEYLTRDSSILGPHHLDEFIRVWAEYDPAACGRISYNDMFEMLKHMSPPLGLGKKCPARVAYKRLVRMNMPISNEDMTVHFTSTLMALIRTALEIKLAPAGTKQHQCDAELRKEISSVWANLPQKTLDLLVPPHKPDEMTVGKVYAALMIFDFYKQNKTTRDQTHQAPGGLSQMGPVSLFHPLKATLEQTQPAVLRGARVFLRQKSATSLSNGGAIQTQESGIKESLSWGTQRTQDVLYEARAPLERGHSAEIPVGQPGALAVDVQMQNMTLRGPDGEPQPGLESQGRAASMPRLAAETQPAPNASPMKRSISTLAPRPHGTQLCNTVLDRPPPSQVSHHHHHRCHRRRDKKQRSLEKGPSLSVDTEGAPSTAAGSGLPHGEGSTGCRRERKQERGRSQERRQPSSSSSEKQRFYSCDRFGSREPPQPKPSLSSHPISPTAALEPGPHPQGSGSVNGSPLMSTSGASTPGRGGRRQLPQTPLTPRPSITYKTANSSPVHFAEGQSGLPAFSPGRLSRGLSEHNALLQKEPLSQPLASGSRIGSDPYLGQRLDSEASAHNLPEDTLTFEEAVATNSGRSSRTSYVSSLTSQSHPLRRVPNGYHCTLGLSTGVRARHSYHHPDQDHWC
Chain of Cannabinoid receptor 1 (P21554 whole entry): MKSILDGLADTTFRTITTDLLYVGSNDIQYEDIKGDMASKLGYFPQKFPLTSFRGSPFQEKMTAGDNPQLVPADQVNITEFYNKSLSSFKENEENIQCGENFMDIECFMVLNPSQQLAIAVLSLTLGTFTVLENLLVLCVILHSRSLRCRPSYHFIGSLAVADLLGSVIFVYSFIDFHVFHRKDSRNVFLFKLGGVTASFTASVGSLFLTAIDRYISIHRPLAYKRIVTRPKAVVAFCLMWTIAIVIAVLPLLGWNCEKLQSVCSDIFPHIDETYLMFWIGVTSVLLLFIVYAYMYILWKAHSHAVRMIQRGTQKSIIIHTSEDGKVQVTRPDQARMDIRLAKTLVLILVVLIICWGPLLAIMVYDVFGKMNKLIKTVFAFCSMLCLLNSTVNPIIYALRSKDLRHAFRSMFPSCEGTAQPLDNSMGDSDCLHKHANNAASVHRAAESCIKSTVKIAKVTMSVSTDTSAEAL
Chain of 5-hydroxytryptamine receptor 7 (P34969 whole entry): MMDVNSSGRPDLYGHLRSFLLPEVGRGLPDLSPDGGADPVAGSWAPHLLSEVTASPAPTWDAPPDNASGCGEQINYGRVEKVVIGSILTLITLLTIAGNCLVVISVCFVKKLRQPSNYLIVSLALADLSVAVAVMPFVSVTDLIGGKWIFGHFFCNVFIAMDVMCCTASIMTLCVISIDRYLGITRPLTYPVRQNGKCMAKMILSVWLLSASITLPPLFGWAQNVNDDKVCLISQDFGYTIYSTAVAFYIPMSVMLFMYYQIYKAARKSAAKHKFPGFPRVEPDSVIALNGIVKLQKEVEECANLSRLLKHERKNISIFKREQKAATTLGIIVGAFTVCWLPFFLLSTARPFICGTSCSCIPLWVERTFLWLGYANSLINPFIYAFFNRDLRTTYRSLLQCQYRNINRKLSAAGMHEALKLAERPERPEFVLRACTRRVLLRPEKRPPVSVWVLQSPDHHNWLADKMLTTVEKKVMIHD
Chain of Substance-P receptor (P25103 whole entry): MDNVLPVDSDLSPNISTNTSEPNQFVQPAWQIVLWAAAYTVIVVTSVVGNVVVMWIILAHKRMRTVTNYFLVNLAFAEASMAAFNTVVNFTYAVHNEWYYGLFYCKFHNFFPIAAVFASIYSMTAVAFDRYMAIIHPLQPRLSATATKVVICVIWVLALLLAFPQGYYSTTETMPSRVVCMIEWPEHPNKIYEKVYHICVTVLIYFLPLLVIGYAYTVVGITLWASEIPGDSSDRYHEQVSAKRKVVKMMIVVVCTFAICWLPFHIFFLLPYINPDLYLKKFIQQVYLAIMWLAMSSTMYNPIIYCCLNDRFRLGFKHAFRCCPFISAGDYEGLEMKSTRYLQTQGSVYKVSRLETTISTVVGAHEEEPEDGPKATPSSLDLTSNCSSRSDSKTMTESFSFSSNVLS

For the compound `O=C(O)c1cccc(-c2noc(-c3ccccc3F)n2)c1`, the concentration at half-maximal activity (AC50) (in general, the concentration giving half of the maximal activity seen) at Progesterone receptor was > 30 µM; in [1] it was > 10 µM.

Turning to `C[N+](C)(C)CCOC(N)=O` [CARBAMOYLCHOLINE], the half-maximal activity concentration (AC50) in assay [1] was > 10 µM.

As to `CC(C)(N)Cc1ccc(Cl)cc1` [CHLORPHENTERMINE], the concentration at half-maximal activity (AC50) was > 10 µM in assay [2]; > 30 µM at Glucagon receptor; > 30 µM at Progesterone receptor; > 10 µM in assay [3]; > 10 µM in assay [1]; > 10 µM in [4].

With `O=C(Nc1ccccc1)OCC(CN1CCCCC1)OC(=O)Nc1ccccc1` (centres undefined) [DIPERODON], the half-maximal activity concentration (AC50) in assay [2] was > 10 µM; at Cannabinoid receptor 1 it was > 10 µM; at Estrogen receptor beta, > 30 µM; on Glucagon receptor, > 30 µM; in assay [5], > 10 µM; at Progesterone receptor it was > 30 µM. The concentration at half-maximal activity (AC50) (on Substance-P receptor; in assay [3]; in [1]; in assay [4]) was > 10 µM in each case.

On to `C=C1C[C@@H]2[C@H](CC[C@]3(C)C(=O)CC[C@@H]23)[C@@]2(C)C=CC(=O)C=C12` [EXEMESTANE], for which the AC50 is > 10 µM in assay [2]; > 30 µM at Estrogen receptor beta; > 30 µM at Glucagon receptor; 29.3 µM on Progesterone receptor; > 10 µM in [1]; > 10 µM in assay [4].

Regarding `CC(=O)N(CC(O)CO)c1c(I)c(C(=O)NCC(O)CO)c(I)c(C(=O)NCC(O)CO)c1I` (centres undefined) [IOHEXOL], the values for the AC50 (on Progesterone receptor; in assay [1]) were > 30 µM and > 10 µM, respectively.

`CN(C)CCCN1c2ccccc2Sc2ccccc21` [PROMAZINE]: the AC50 in [2] is > 10 µM; at Cannabinoid receptor 1 it was > 10 µM; on Estrogen receptor beta, > 30 µM; on Glucagon receptor it was > 30 µM; in assay [5], 2.16 µM; at Progesterone receptor, > 30 µM. Moreover, the half-maximal activity concentration (AC50) on Substance-P receptor is > 10 µM; in assay [3], 5 µM; in assay [1], 4.37 µM; in [4] it was 0.999 µM.

On to `O=C(O)CCn1c2c(c3ccccc31)C[C@H](NS(=O)(=O)c1ccc(F)cc1)CC2` [RAMATROBAN], for which the concentration at half-maximal activity (AC50) at Glucagon receptor was > 10 µM.

Regarding `O=P(O)(O)C(O)(Cc1cccnc1)P(=O)(O)O` [RISEDRONIC ACID], the AC50 in assay [2] was > 10 µM; at Cannabinoid receptor 1, > 10 µM; at Glucagon receptor it was > 30 µM; in assay [5], > 10 µM; at Progesterone receptor, > 30 µM; at Substance-P receptor, > 10 µM. The AC50 in [3] and in [1] was > 10 µM each time.

With `O=C1CCC(N2C(=O)c3ccccc3C2=O)C(=O)N1` (centres undefined) [THALIDOMIDE], the AC50 in assay [2] is > 10 µM; on Estrogen receptor beta, > 30 µM; at Glucagon receptor, > 30 µM; at Progesterone receptor it was > 30 µM; at Substance-P receptor, > 10 µM; in [3], > 10 µM. For the same compound, the concentration at half-maximal activity (AC50) in assay [1] and in assay [4] was > 10 µM each time.
